Here are results for two compounds from patent US20070117770A1, “Human ribosomal DNA (rDNA) and ribosomal RNA (rRNA) nucleic acids and uses thereof” (Cylene Pharmaceuticals, Inc., priority 2005, published 2007).

What all share (test): Protein kinase inhibition assay
Common to all, as to type: biochemical

Experiment [1] addresses cKit(h) (Homo sapiens, UniProt P10721). Conditions: read-out: percent residual activity of cKit(h). As to the method:
(§1) Certain compounds were tested for activity in protein kinase inhibition assays. All substrates were dissolved and diluted to working stocks in de-ionized water, apart from histone H1 (10× working stock in 20 mM MOPS pH 7.0), PDKtide (10× working stock in 50 mM Tris pH 7.0) ATF2 (which is typically stored at a 20× working stock in 50 mM Tris pH 7.5, 150 mM NaCl, 0.1 mM EGTA, 0.03% Brij-35, 50% glycerol, 1 mM benzamidine, 0.2 mM PMSF and 0.1% R-mercaptoethanol), KKLNRTLSFAEPG (SEQ ID NO:203) and RRRLSFAEPG (SEQ ID NO:204) (50 mM HEPES pH 7.4) and GGEEEEYFELVKKKK (SEQ ID NO:205) (20 mM MOPS pH 7.0). All kinases were pre-diluted to a 10× working concentration prior to addition into the assay. The composition of the dilution buffer for each kinase is detailed below.
(§2) In a final reaction volume of 25 μl, cKit (h) (5-10 mU) is incubated with 8 mM MOPS pH 7.0, 0.2 mM EDTA, 10 mM MnCl2, 0.1 mg/ml poly(Glu, Tyr) 4:1, 10 mM MgAcetate and [gamma-33P-ATP] (specific activity approx. 500 cpm/pmol, concentration as required). The reaction is initiated by the addition of the MgATP mix. After incubation for 40 minutes at room temperature, the reaction is stopped by the addition of 5 μl of a 3% phosphoric acid solution. 10 μl of the reaction is then spotted onto a Filtermat A and washed three times for 5 minutes in 75 mM phosphoric acid and once in methanol prior to drying and scintillation counting.

Experiment [2] deals with CSK(h) (Homo sapiens, UniProt P41240). Conditions: read-out: percent residual activity of CSK(h). The protocol:
as §1
In a final reaction volume of 25 μl, CSK (h) (5-10 mU) is incubated with 50 mM Tris pH 7.5, 0.1 mM EGTA, 0.1 mM Na3VO4, 0.1% R-mercaptoethanol, 0.1 mg/ml poly(Glu, Tyr) 4:1, 10 mM MnCl2, 10 mM MgAcetate and [gamma-33P-ATP] (specific activity approx. 500 cpm/pmol, concentration as required). The reaction is initiated by the addition of the MgATP mix. After incubation for 40 minutes at room temperature, the reaction is stopped by the addition of 5 μl of a 3% phosphoric acid solution. […]

Experiment [3] concerns the target Fer(h) (Homo sapiens, UniProt P16591). Conditions: read-out: percent residual activity of Fer(h). The protocol:
as §1
In a final reaction volume of 25 μl, Fer (h) (5-10 mU) is incubated with 8 mM MOPS pH 7.0, 0.2 mM EDTA, 1 mM MnCl2, 250 μM KKKSPGEYVNIEFG (SEQ ID NO:207), 10 mM MgAcetate and [gamma-33P-ATP] (specific activity approx. 500 cpm/pmol, concentration as required). The reaction is initiated by the addition of the MgATP mix. After incubation for 40 minutes at room temperature, the reaction is stopped by the addition of 5 μl of a 3% phosphoric acid solution. […]

The target in experiment [4] is CK1δ(h) (Homo sapiens, UniProt P48730). The conditions noted are these: read-out: percent residual activity of CK1δ(h). The protocol:
as §1
as §2, with “CK1δ” for “cKit”, “200 μM KRRRALS(p)VASLPGL (SEQ ID NO:214),” for “10 mM MnCl2, 0.1 mg/ml poly(Glu, Tyr) 4:1,”, “P30 filtermat” for “Filtermat A”

Experiment [5] deals with ROCK-II(h) (Homo sapiens, UniProt O75116). The conditions noted are these: read-out: percent residual activity of ROCK-II(h). The protocol: as §1
In a final reaction volume of 25 μl, ROCK-II (h) (5-10 mU) is incubated with 50 mM Tris pH 7.5, […] EGTA, 30 μM […] (SEQ ID NO:222), 10 mM MgAcetate and [y-33P-ATP] (specific activity approx. 500 cpm/pmol, concentration as required). The reaction is initiated by the addition of the MgATP mix. After incubation for 40 minutes at room temperature, the reaction is stopped by the addition of 5 μl of a 3% phosphoric acid solution. 10 μl of the reaction is then spotted onto a P30 filtermat and washed three times for 5 minutes in 75 mM phosphoric acid and once in methanol prior to drying and scintillation counting.

Experiment [6] addresses PKBα(h) (Homo sapiens, UniProt P31749). Conditions: read-out: percent residual activity of PKBα(h). The protocol: as §1
as §2, with “PKBα” for “cKit”, “30 μM GRPRTSSFAEGKK (SEQ ID NO:232),” for “10 mM MnCl2, 0.1 mg/ml poly(Glu, Tyr) 4:1,”, “P30 filtermat” for “Filtermat A”

Chain of CSK(h) (P41240 whole entry): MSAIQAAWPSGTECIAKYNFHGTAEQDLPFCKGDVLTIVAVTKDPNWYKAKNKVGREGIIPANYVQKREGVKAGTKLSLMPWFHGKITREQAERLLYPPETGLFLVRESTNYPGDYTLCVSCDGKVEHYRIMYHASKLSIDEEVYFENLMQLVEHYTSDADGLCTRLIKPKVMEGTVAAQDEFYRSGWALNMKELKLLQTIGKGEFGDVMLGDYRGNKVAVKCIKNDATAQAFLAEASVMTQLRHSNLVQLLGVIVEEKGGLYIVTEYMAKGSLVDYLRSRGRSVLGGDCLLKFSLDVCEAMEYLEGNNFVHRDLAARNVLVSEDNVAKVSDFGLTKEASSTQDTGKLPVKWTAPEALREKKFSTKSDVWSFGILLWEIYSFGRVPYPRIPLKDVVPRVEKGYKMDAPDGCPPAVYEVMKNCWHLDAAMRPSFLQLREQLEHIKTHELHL
Chain of ROCK-II(h) (O75116 whole entry): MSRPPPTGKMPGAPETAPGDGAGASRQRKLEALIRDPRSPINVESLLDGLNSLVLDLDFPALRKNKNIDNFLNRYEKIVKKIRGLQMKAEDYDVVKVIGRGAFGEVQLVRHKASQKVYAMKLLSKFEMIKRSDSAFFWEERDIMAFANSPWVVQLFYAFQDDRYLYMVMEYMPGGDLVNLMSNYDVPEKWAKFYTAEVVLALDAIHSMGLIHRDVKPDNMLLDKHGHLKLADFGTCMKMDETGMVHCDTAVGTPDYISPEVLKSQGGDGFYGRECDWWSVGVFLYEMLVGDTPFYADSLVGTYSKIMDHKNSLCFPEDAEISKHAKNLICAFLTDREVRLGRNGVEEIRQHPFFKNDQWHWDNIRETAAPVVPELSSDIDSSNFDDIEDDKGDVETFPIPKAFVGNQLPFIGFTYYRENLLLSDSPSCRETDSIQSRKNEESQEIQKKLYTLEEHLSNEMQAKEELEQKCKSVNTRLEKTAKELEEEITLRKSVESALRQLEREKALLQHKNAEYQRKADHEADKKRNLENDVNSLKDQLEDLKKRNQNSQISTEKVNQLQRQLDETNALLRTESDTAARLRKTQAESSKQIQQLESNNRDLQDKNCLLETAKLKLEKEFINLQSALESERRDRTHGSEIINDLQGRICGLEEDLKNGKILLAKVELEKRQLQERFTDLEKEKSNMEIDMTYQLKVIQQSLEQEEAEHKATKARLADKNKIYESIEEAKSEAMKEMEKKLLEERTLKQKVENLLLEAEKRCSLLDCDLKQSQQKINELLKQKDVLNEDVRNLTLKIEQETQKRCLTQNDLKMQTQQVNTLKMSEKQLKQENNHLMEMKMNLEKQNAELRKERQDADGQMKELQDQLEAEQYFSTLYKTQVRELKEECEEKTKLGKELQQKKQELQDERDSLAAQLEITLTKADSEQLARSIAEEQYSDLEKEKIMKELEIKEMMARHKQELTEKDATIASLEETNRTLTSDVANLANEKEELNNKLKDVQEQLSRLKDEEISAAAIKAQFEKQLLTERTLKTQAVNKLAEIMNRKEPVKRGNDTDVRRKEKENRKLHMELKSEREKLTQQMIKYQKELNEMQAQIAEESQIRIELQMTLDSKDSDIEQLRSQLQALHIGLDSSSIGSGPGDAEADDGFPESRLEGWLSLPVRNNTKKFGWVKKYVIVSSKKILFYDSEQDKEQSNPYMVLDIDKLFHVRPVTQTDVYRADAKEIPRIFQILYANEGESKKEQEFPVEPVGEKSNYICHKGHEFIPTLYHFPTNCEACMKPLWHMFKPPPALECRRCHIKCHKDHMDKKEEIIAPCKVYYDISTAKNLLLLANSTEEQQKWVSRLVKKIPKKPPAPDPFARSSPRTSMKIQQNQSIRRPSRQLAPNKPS
Chain of CK1δ(h) (P48730 whole entry): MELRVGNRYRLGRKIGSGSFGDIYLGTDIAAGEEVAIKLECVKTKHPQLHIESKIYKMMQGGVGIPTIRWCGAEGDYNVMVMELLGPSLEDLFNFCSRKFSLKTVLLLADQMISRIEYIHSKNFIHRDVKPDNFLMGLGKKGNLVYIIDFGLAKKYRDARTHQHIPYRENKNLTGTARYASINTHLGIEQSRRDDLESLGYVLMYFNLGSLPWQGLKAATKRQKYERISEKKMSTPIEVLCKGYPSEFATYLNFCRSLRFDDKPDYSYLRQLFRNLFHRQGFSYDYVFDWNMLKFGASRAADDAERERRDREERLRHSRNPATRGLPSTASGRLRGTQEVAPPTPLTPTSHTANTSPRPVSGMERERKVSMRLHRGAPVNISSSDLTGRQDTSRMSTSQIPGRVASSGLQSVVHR
Chain of PKBα(h) (P31749 whole entry): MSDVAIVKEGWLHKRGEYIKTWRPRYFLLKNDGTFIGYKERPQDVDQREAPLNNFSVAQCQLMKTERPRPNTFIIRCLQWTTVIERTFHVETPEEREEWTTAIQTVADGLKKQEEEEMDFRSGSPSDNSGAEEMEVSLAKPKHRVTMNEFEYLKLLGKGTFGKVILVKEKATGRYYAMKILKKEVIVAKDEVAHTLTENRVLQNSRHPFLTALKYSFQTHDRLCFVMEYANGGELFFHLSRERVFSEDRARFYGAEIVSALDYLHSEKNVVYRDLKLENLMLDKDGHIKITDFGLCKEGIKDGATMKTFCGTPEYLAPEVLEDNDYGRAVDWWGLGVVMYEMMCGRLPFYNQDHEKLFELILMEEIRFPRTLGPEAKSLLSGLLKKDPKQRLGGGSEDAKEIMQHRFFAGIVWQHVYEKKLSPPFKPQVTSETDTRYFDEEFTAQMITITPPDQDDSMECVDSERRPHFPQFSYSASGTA
Chain of cKit(h) (P10721 26-976): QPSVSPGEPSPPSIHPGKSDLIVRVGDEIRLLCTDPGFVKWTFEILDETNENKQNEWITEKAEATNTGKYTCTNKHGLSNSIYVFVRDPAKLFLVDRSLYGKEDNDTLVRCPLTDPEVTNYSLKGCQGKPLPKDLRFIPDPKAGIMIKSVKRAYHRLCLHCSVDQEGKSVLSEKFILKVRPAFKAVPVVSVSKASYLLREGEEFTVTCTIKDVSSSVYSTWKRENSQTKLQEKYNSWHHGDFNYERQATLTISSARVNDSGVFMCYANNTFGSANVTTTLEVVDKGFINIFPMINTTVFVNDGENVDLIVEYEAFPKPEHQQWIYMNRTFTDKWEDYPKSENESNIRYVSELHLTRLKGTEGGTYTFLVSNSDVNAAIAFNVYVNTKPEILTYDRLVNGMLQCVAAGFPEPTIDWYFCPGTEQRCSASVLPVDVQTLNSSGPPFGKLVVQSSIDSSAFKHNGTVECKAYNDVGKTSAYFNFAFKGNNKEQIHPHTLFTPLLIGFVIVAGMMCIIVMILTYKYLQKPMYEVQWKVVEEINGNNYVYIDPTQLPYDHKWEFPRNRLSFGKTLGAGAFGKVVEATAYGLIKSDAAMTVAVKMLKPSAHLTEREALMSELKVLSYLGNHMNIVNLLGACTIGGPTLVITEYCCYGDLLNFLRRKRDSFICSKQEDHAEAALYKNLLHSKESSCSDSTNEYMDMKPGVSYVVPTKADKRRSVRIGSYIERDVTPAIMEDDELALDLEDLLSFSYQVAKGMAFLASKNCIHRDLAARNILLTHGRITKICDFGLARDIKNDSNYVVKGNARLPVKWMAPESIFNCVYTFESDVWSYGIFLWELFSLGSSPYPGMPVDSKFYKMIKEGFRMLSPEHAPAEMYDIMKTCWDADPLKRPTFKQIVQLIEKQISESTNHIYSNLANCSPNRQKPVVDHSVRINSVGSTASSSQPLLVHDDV
Chain of Fer(h) (P16591 whole entry): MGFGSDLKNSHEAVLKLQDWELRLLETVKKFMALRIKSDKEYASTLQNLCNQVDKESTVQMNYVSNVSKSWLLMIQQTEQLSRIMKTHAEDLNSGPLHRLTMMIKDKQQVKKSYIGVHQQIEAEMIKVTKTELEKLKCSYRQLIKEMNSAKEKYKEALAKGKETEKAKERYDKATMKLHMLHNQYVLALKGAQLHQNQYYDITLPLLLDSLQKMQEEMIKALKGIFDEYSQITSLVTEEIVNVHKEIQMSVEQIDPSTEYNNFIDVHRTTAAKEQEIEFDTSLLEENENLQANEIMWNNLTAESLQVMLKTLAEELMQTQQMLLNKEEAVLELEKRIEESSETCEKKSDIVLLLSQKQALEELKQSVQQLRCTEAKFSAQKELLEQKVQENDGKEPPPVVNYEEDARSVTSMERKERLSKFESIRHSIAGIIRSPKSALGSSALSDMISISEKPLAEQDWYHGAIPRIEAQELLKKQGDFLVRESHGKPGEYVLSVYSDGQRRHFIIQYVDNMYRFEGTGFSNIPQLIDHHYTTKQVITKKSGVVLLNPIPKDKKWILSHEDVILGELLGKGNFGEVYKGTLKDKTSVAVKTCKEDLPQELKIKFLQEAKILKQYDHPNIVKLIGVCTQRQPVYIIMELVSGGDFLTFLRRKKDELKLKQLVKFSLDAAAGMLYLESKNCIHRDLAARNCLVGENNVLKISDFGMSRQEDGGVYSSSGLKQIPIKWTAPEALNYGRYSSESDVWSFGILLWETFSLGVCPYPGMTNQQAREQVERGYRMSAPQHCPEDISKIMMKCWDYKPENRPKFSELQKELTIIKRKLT

As for `CN1CCCC1CCNC(=O)c1cn2c3c(c(N4CCC(c5cnccn5)C4)c(F)cc3c1=O)Oc1cc3ccccc3cc1-2` (stereo not drawn) [Compound A-1], the remaining activity at 2.5 µM in experiment [1] was 111%; in experiment [2], 116%; in experiment [3], 84%; in experiment [4], 87%; in experiment [5], 64%; in experiment [6] it was 91%.
`CC(=O)N1CCN(c2ccc3c(=O)c(C(=O)NCCN4CCCC4)c4n(C)c5ccccc5n4c3n2)CC1` [Compound B-1]: the remaining activity at 2.5 µM in experiment [1] turned out to be 114%; in experiment [2] it was 92%; in experiment [3] it was 94%; in experiment [4], 92%; in experiment [5], 115%; in experiment [6], 103%.
